Data published in a melting point compilation (Tetko et al.; mined from patent text by program, amines drawn as free bases though some values may be those of a salt).

SMILES	melting point [°C]
CC(=O)SCC(C(=O)NC(Cc1occ2ccccc12)C(=O)O)C(F)(F)F (stereo not given)	147 to 149
CCS(=O)c1ccc(-c2coc3ccc(-c4nnc(C)o4)cc23)c(Cl)c1 (stereo not given)	151 to 152
C[N+](C)([O-])CC#CC1=Cc2ccccc2Sc2ccc(Cl)cc21	68 to 69
Cc1nn(C)c(Cl)c1C(=O)Nc1cccc2c1CCC2(C)C	175
Cc1ccc(C23CCN(C)CC2O3)cc1 (stereo not given)	46 to 50
CS(=O)(=O)OCC1CCN(C(=O)c2ccccc2)CC1	87 to 90
Cc1c(C(=O)Nc2ccc(N3CCN(C4CCOCC4)CC3)c(C#N)c2)cnn1-c1ccccc1	227
COC(=O)NC1=NCC(c2ccccc2)CN1C (stereo not given)	176 to 177
CCCc1nc2c(N)nc3cccnc3c2n1C1(OC)CCCCC1	187 to 188
CCNC(=O)/C=C/c1cccc(Cl)c1	87 to 88
O=C(C=Cc1ccc(Cl)cc1)NN1CC(=O)NC1=O	230 to 235
CC(O)c1cc2cc(OCC(=O)O)c(Cl)c(Cl)c2s1 (stereo not given)	173 to 175
Fc1cc(F)cc(C=Cc2cc3cc4ccccc4cc3s2)c1	265 to 267
Cc1cc(Cl)ccc1N1CCCNC1=S	266 to 268
CCOC(=O)c1cnc(-c2cc3cccc([N+](=O)[O-])c3n2COC)s1	92 to 93
O=C(O)c1ccc(C(=C2CC3CCC(C2)N3CCc2ccccc2)c2ccccc2)cc1	285 to 290
OCCc1c[nH]c(-c2ccccc2OCc2ccccc2)n1	131 to 133
COc1c(OCCCCCC(=O)N(CCO)C2CCCCC2)ccc2c1CN1CC(=O)NC1=N2	208 to 209
CCn1cc(C2(c3cccc(-c4cncc(Cl)c4)c3)N=C(N)N(C)C2=O)cn1 (stereo not given)	205 to 210
COC(=O)c1c(S(=O)(=O)NC(=O)Nc2nc(OC)cc(OC)n2)ccn1C	182 to 186
c1ccc(C(c2ccccc2)(c2ccccc2)N2CCCC2)cc1	126
CC1(C)Oc2ccc(OC(F)(F)F)cc2[C@@H](NC(=O)c2ccc(Cl)cc2[N+](=O)[O-])[C@@H]1O	64 to 66
O=C(NC1CCC1)c1cc([N+](=O)[O-])[nH]n1	240
O=C(c1ccccc1)N1CCC(c2c[nH]c3cc(F)ccc23)CC1	220

SMILES	melting point [°C]
CCCc1cc(F)c(C(=O)O)cc1O	134 to 136
CC(O[Si](C)(C)C(C)(C)C)C1C(=O)NC1C1CCCC(OCCF)C1O (stereo not given)	106 to 110
CN(C)C(=O)C1(c2ccccc2)CCNCC1	95
COc1cccc(C2C(C(=O)c3ccc(C)cc3)=C(O)C(=O)N2c2ccc(C)nn2)c1 (stereo not given)	265
CN1C(=O)[C@H](NC(=O)CCc2ccc(Cl)cc2Cl)N=C(c2ccccc2)c2ccccc21	92 to 95
Cc1ccc(-c2ccc3c(c2)C=C(C(=O)Nc2ccc(CNC(CO)CO)cc2)CC3)cc1	189 to 193
CC(=O)Nc1nc(NC(C)=O)nc(-c2ccc(Oc3ccccc3)cc2)n1	243 to 245
c1ccc2c(c1)CCc1c(CN3CCN(c4ccc5ccccc5n4)CC3)n[nH]c1-2	154 to 155
CCOC(=O)Cc1ccnc(C(SC)=C(C#N)C#N)c1	148 to 152
COc1cc2oc(=O)c(CCO)c(C)c2c(OC)c1OC	95 to 97
CC(C)Oc1ccc(/C=C(\NC(=O)c2ccc(OCCc3ccc4ccccc4c3)cc2)C(=O)NCCO)cc1	78 to 79
COCNC(=O)OC(C(Oc1ccc(-c2ccccc2)cc1)n1cncn1)C(C)(C)C (stereo not given)	95 to 98
CC[C@H](C)CCCCc1cnc(-c2ccc(OC(C)C)cc2)nc1	47.2 to 47.7
CCCCCCCCCCCCOc1cc(N)c(OCCCCCCCCCCCC)cc1N	75 to 76
O=[N+]([O-])C(CN1CCOCC1)=C1NCCCS1	131 to 132
O=C(O)c1cc(-c2ccc(OC(F)(F)F)cc2)c2c3c(ccc2c1)OCO3	296 to 300
Cc1c(F)cc(C(=O)NCC2CC2)cc1-c1ccc(C(=O)NCC(C)(C)C)cc1C(=O)Nc1nccs1	179 to 183
COCCCS(=O)(=O)NC(=O)/C=C/c1cc(OC(C)C)nn1Cc1ccc(C(F)(F)F)cc1Cl	138 to 139
CCNn1cc(C(=O)O)c(=O)c2cc(F)c(Cl)cc21	258
COc1ccccc1OCC(O)CN1CCC(NC(=O)NC(=O)c2ccc(F)cc2)CC1 (stereo not given)	194 to 195
O=C(Oc1ccccc1OC(=O)c1cc(O)c(O)c(O)c1)c1cc(O)c(O)c(O)c1	210
Nc1cc(N2CCNCC2)ccc1S(=O)(=O)c1ccc(F)cc1	144 to 146
O=c1[nH]c(=S)nc2n1C(c1ccc(F)cc1)CO2 (stereo not given)	211 to 217
Cc1cc(S(=O)(=O)NCC(O)(CO)c2ccccc2)ccc1Cl (stereo not given)	105 to 106

SMILES	melting point [°C]
CC1(C)CC(=O)C(C(=O)Nc2ccc(Cl)c(C(F)(F)F)c2)C(=O)O1 (stereo not given)	156
CCCCOc1ccc(Cl)cc1C(=O)NCCc1ccc(CC(=O)O)cc1	104 to 105
CCOC(=O)c1cncc(OC)c1CCCO	85 to 89
CCCCCCCNC(=O)N(C)c1cccc(-c2ccc(C=C(C)C(=O)O)cc2OCC)c1	123
CC(C)n1nc(-c2sc(NC(=O)N3CCOCC3)nc2-c2ccccc2)ccc1=O	231 to 232
Nc1nccn2c(C3CCC3)nc(-c3ccccc3)c12	164 to 166
CC(C)C[C@H](N)[C@@H](O)CCS(=O)(=O)CCc1ccccc1	153 to 154
NCC1CN(c2c(F)cc3c(=O)c(C(=O)O)cn(C4CC4)c3c2F)C1	190 to 195
CC(C)Cc1cc(C(N)=O)nn1C	118 to 120
Cc1cc(-c2nc3cccnn3c2-c2ccnc(NC(=O)c3ccnc(Cl)c3)c2)ccc1F	224 to 225
CC1(C)OC(=O)C(Oc2ccc3ccccc3n2)=C1c1ccc(S(C)(=O)=O)cc1	141 to 142
CCc1ccccc1NC(=O)c1ccc(CN2C(=O)C3(COc4cc5c(cc43)CCO5)c3ccccc32)cc1 (stereo not given)	203 to 204
CN(C=C(c1ccccc1)c1ccccc1)C(=O)c1sc2ccc(C(F)(F)F)cc2c1O	147 to 150
COc1ccc(S(=O)(=O)n2ccc3ccccc32)cc1	124 to 126
CN(C(=O)Nc1ccc(Cl)c(Cl)c1)S(C)(=O)=O	140
COc1ccc(N2CCN(c3ccc(N4C(=O)NC(C)(C)C4=O)cc3)CC2)cc1	255
C[C@]1(CN2CCC(Nc3ccc(OC(F)(F)F)cc3)CC2)Cn2cc([N+](=O)[O-])nc2O1	108 to 109
C[C@@H]1NC(=O)[C@H]2Cc3c([nH]c4ccccc34)[C@@H](c3ccc4occc4c3)N2C1=O	150 to 151
COC(=O)C(=CN(C)C)N(C)c1cc(-c2cccc(OC)c2)ncn1	172 to 174
Cc1ccc2c(c1)c(N1CCN(C(=O)c3ccco3)CC1)c(C#N)c(=O)n2Cc1ccccc1	146
COc1cc(COc2nn(-c3ccccc3)cc2/C=C/C(=O)N(C)OC)ccc1OCc1nc(-c2ccco2)oc1C	173 to 174
COCCOCCOc1ccc(NC(=O)NCc2ccc3c(c2)CN(C2CCC(=O)NC2=O)C3=O)cc1Cl (stereo not given)	188 to 190
